{"source": "PubChem BioAssay AID1963981", "about": "(Molecular Pharmacology Branch, DTP, NCI, 2024)", "system": "354836-022-R-J1-PDC multicell spheroid viability", "test": "Anticancer human tumor 354836-022-R-J1-PDC patient-derived head and neck squamous cell carcinoma cell line growth inhibition [PI3K]", "conditions": "for IC50: curve of first compound; for viability, T/C: stronger effect = lower value", "outline": "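Tumor cells grown as multi-cell spheroids with HUVEC endothelial cells and MSC fibroblast-like stroma were treated with targeted agents combined with inavolisib, alpelisib, duvelisib or copanlisib. Doses fell in half-log steps from near clinical Cmax, else from 10 microM. Viability was measured.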", "key": {"[1]": {"conditions": "second compound 0.0316 µM, first compound 0.0316 µM"}, "[2]": {"conditions": "second compound 0.0316 µM, first compound 0.1 µM"}, "[3]": {"conditions": "second compound 0.0316 µM, first compound 0.316 µM"}, "[4]": {"conditions": "second compound 0.0316 µM, first compound 1 µM"}, "[5]": {"conditions": "second compound 0.0316 µM, first compound 3.16 µM"}, "[6]": {"conditions": "second compound 0.0316 µM, first compound 10 µM"}, "[7]": {"conditions": "second compound 0.1 µM, first compound 0.0316 µM"}, "[8]": {"conditions": "second compound 0.1 µM, first compound 0.1 µM"}, "[9]": {"conditions": "second compound 0.1 µM, first compound 0.316 µM"}, "[10]": {"conditions": "second compound 0.1 µM, first compound 1 µM"}, "[11]": {"conditions": "second compound 0.1 µM, first compound 3.16 µM"}, "[12]": {"conditions": "second compound 0.1 µM, first compound 10 µM"}, "[13]": {"conditions": "second compound 0.316 µM, first compound 0.0316 µM"}, "[14]": {"conditions": "second compound 0.316 µM, first compound 0.1 µM"}, "[15]": {"conditions": "second compound 0.316 µM, first compound 0.316 µM"}, "[16]": {"conditions": "second compound 0.316 µM, first compound 1 µM"}, "[17]": {"conditions": "second compound 0.316 µM, first compound 3.16 µM"}, "[18]": {"conditions": "second compound 0.316 µM, first compound 10 µM"}, "[19]": {"conditions": "second compound 1 µM, first compound 0.0316 µM"}, "[20]": {"conditions": "second compound 1 µM, first compound 0.1 µM"}, "[21]": {"conditions": "second compound 1 µM, first compound 0.316 µM"}, "[22]": {"conditions": "second compound 1 µM, first compound 1 µM"}, "[23]": {"conditions": "second compound 1 µM, first compound 3.16 µM"}, "[24]": {"conditions": "second compound 1 µM, first compound 10 µM"}}}
{"compound": "Cn1nccc1Nc1nccc(-c2ccn(C(CO)c3ccc(Cl)c(F)c3)c(=O)c2)n1", "note": "(centres undefined) + CC(Nc1ncnc2nc[nH]c12)c1cc2cccc(Cl)c2c(=O)n1-c1ccccc1;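 further: spheroids exposed to agents for seven days before the viability read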", "values": [{"measurement": "IC50", "setting": "second compound 0.0316 µM", "value": "> 10", "unit": "µM"}, {"measurement": "IC50", "setting": "second compound 0.1 µM", "value": "> 10", "unit": "µM"}, {"measurement": "IC50", "setting": "second compound 0.316 µM", "value": "> 10", "unit": "µM"}, {"measurement": "IC50", "setting": "second compound 1 µM", "value": "> 10", "unit": "µM"}, {"measurement": "IC50", "setting": "second compound 3.16 µM", "value": "> 10", "unit": "µM"}, {"measurement": "IC50", "setting": "second compound 10 µM", "value": "> 10", "unit": "µM"}, {"measurement": "viability, T/C", "setting": "[1]", "value": 107, "unit": "%"}, {"measurement": "viability, T/C", "setting": "[2]", "value": 107, "unit": "%"}, {"measurement": "viability, T/C", "setting": "[3]", "value": 103, "unit": "%"}, {"measurement": "viability, T/C", "setting": "[4]", "value": 94.9, "unit": "%"}, {"measurement": "viability, T/C", "setting": "[5]", "value": 89.3, "unit": "%"}, {"measurement": "viability, T/C", "setting": "[6]", "value": 90.5, "unit": "%"}, {"measurement": "viability, T/C", "setting": "[7]", "value": 108, "unit": "%"}, {"measurement": "viability, T/C", "setting": "[8]", "value": 110, "unit": "%"}, {"measurement": "viability, T/C", "setting": "[9]", "value": 94.3, "unit": "%"}, {"measurement": "viability, T/C", "setting": "[10]", "value": 104, "unit": "%"}, {"measurement": "viability, T/C", "setting": "[11]", "value": 91.2, "unit": "%"}, {"measurement": "viability, T/C", "setting": "[12]", "value": 96.4, "unit": "%"}, {"measurement": "viability, T/C", "setting": "[13]", "value": 113, "unit": "%"}, {"measurement": "viability, T/C", "setting": "[14]", "value": 93.5, "unit": "%"}, {"measurement": "viability, T/C", "setting": "[15]", "value": 87.2, "unit": "%"}, {"measurement": "viability, T/C", "setting": "[16]", "value": 106, "unit": "%"}, {"measurement": "viability, T/C", "setting": "[17]", "value": 100, "unit": "%"}, {"measurement": "viability, T/C", "setting": "[18]", "value": 94.9, "unit": "%"}, {"measurement": "viability, T/C", "setting": "[19]", "value": 117, "unit": "%"}, {"measurement": "viability, T/C", "setting": "[20]", "value": 95.5, "unit": "%"}, {"measurement": "viability, T/C", "setting": "[21]", "value": 111, "unit": "%"}, {"measurement": "viability, T/C", "setting": "[22]", "value": 118, "unit": "%"}, {"measurement": "viability, T/C", "setting": "[23]", "value": 101, "unit": "%"}, {"measurement": "viability, T/C", "setting": "[24]", "value": 78.2, "unit": "%"}, {"measurement": "viability, T/C", "setting": "second compound 3.16 µM, first compound 0.0316 µM", "value": 94.4, "unit": "%"}, {"measurement": "viability, T/C", "setting": "second compound 3.16 µM, first compound 0.1 µM", "value": 91.6, "unit": "%"}, {"measurement": "viability, T/C", "setting": "second compound 3.16 µM, first compound 0.316 µM", "value": 99.3, "unit": "%"}, {"measurement": "viability, T/C", "setting": "second compound 3.16 µM, first compound 1 µM", "value": 97.3, "unit": "%"}, {"measurement": "viability, T/C", "setting": "second compound 3.16 µM, first compound 3.16 µM", "value": 107, "unit": "%"}, {"measurement": "viability, T/C", "setting": "second compound 3.16 µM, first compound 10 µM", "value": 88.1, "unit": "%"}, {"measurement": "viability, T/C", "setting": "second compound 10 µM, first compound 0.0316 µM", "value": 88.3, "unit": "%"}, {"measurement": "viability, T/C", "setting": "second compound 10 µM, first compound 0.1 µM", "value": 103, "unit": "%"}, {"measurement": "viability, T/C", "setting": "second compound 10 µM, first compound 0.316 µM", "value": 95.3, "unit": "%"}, {"measurement": "viability, T/C", "setting": "second compound 10 µM, first compound 1 µM", "value": 85.4, "unit": "%"}, {"measurement": "viability, T/C", "setting": "second compound 10 µM, first compound 3.16 µM", "value": 94, "unit": "%"}, {"measurement": "viability, T/C", "setting": "second compound 10 µM, first compound 10 µM", "value": 76.1, "unit": "%"}]}
{"compound": "CC1(C)CCC(CN2CCN(c3ccc(C(=O)NS(=O)(=O)c4ccc(NCC5CCOCC5)c([N+](=O)[O-])c4)c(Oc4cnc5[nH]ccc5c4)c3)CC2)=C(c2ccc(Cl)cc2)C1", "note": "+ COc1c(OCCCN2CCOCC2)ccc2c3n(c(=NC(=O)c4cnc(N)nc4)nc12)CCN3", "values": [{"measurement": "IC50", "setting": "second compound 0.00316 µM", "value": 4.46, "unit": "µM"}, {"measurement": "IC50", "setting": "second compound 0.01 µM", "value": 3.75, "unit": "µM"}, {"measurement": "IC50", "setting": "second compound 0.0316 µM", "value": 3.73, "unit": "µM"}, {"measurement": "IC50", "setting": "second compound 0.1 µM", "value": 1.75, "unit": "µM"}, {"measurement": "IC50", "setting": "second compound 0.316 µM", "value": "< 0.0316", "unit": "µM"}, {"measurement": "IC50", "setting": "second compound 1 µM", "value": "< 0.0316", "unit": "µM"}, {"measurement": "viability, T/C", "setting": "second compound 0.00316 µM, first compound 0.0316 µM", "value": 85.4, "unit": "%"}, {"measurement": "viability, T/C", "setting": "second compound 0.00316 µM, first compound 0.1 µM", "value": 97.5, "unit": "%"}, {"measurement": "viability, T/C", "setting": "second compound 0.00316 µM, first compound 0.316 µM", "value": 97, "unit": "%"}, {"measurement": "viability, T/C", "setting": "second compound 0.00316 µM, first compound 1 µM", "value": 96.5, "unit": "%"}, {"measurement": "viability, T/C", "setting": "second compound 0.00316 µM, first compound 3.16 µM", "value": 69.2, "unit": "%"}, {"measurement": "viability, T/C", "setting": "second compound 0.00316 µM, first compound 10 µM", "value": 5.16, "unit": "%"}, {"measurement": "viability, T/C", "setting": "second compound 0.01 µM, first compound 0.0316 µM", "value": 92.6, "unit": "%"}, {"measurement": "viability, T/C", "setting": "second compound 0.01 µM, first compound 0.1 µM", "value": 87.3, "unit": "%"}, {"measurement": "viability, T/C", "setting": "second compound 0.01 µM, first compound 0.316 µM", "value": 95, "unit": "%"}, {"measurement": "viability, T/C", "setting": "second compound 0.01 µM, first compound 1 µM", "value": 95.5, "unit": "%"}, {"measurement": "viability, T/C", "setting": "second compound 0.01 µM, first compound 3.16 µM", "value": 58, "unit": "%"}, {"measurement": "viability, T/C", "setting": "second compound 0.01 µM, first compound 10 µM", "value": 4.01, "unit": "%"}, {"measurement": "viability, T/C", "setting": "[1]", "value": 69, "unit": "%"}, {"measurement": "viability, T/C", "setting": "[2]", "value": 76.2, "unit": "%"}, {"measurement": "viability, T/C", "setting": "[3]", "value": 78.8, "unit": "%"}, {"measurement": "viability, T/C", "setting": "[4]", "value": 79, "unit": "%"}, {"measurement": "viability, T/C", "setting": "[5]", "value": 58, "unit": "%"}, {"measurement": "viability, T/C", "setting": "[6]", "value": 3.73, "unit": "%"}, {"measurement": "viability, T/C", "setting": "[7]", "value": 58.9, "unit": "%"}, {"measurement": "viability, T/C", "setting": "[8]", "value": 50.6, "unit": "%"}, {"measurement": "viability, T/C", "setting": "[9]", "value": 49, "unit": "%"}, {"measurement": "viability, T/C", "setting": "[10]", "value": 61.7, "unit": "%"}, {"measurement": "viability, T/C", "setting": "[11]", "value": 44.6, "unit": "%"}, {"measurement": "viability, T/C", "setting": "[12]", "value": 2.56, "unit": "%"}, {"measurement": "viability, T/C", "setting": "[13]", "value": 12.8, "unit": "%"}, {"measurement": "viability, T/C", "setting": "[14]", "value": 12.5, "unit": "%"}, {"measurement": "viability, T/C", "setting": "[15]", "value": 13.7, "unit": "%"}, {"measurement": "viability, T/C", "setting": "[16]", "value": 14.3, "unit": "%"}, {"measurement": "viability, T/C", "setting": "[17]", "value": 7.93, "unit": "%"}, {"measurement": "viability, T/C", "setting": "[18]", "value": 1.71, "unit": "%"}, {"measurement": "viability, T/C", "setting": "[19]", "value": 1.99, "unit": "%"}, {"measurement": "viability, T/C", "setting": "[20]", "value": 1.2, "unit": "%"}, {"measurement": "viability, T/C", "setting": "[21]", "value": 1.79, "unit": "%"}, {"measurement": "viability, T/C", "setting": "[22]", "value": 1.5, "unit": "%"}, {"measurement": "viability, T/C", "setting": "[23]", "value": 1.66, "unit": "%"}, {"measurement": "viability, T/C", "setting": "[24]", "value": 0.72, "unit": "%"}]}
